Experiments:
Assay type in all cases: in vivo
[1] = test system: panelists; assay: experiment on cooling intensity: panelists taste solutions and compare with menthol at 2 ppm; conditions: tasted by a small group of panelists; reference menthol at 2 ppm
[2] = test system: mouth; assay: Application in mouthwash: cooling perception in the mouth; conditions: mouthwash with 10 mL of 1% solution in alcohol per liter, 30 mL swished, gargled and spit out
Method: [table] All the ingredients are mixed. 30 mL of obtained solution is put in the mouth, swished around, gargled and spit out. […] The cooling perception lasts for several hours

[3] = test system: mouth; assay: Application in toothpaste: cooling perception in the mouth; conditions: toothgel with 1.500 g of 2% solution in PG per 100 g, teeth brushed, mouth rinsed with water
Excerpt: [table] The chemicals are mixed in the toothgel, a piece of toothgel is put on a toothbrush and a panelist's teeth are brushed. The mouth is rinsed with water and the water is spit out. […] The cooling perception lasts for several hours.

In the case of `CC1CCC(C(C)C)C(C(=O)Nc2cccc3ocnc23)C1` (stereo not shown) [Example 1, N-benzooxazol-4-yl 3-p-menthanecarboxamide], the “Concentration of solution having a cooling intensity similar or slightly higher than that of a solution of menthol at 2 ppm” value (“Concentration” for short) [1] is reported as 0.02 ppm, the “duration of cooling perception” value [2] is reported as “several hours” and the cooling sensation ([2]; every area of the mouth and lips) is reported as “intense cooling”.
For `CC1CCC(C(C)C)C(C(=O)Nc2ccc3c(c2)OCO3)C1` (stereo not shown) [N-benzo[1,3]dioxol-5-yl-3-p-menthanecarboxamide], the “Concentration” value [1] was 0.02 ppm.
`CC1CCC(C(C)C)C(C(=O)Nc2ccc(N3CCOCC3)cc2)C1` (stereo not shown) [N-4-(morpholin-4-yl)-phenyl 3-p-menthanecarboxamide] was tested, and the “Concentration” value [1] was 0.2 ppm.
In the case of `CC1CCC(C(C)C)C(C(=O)Nc2ccc(-c3cnco3)cc2)C1` (stereo not shown) [Example 5, N-4-(oxazol-5-yl)-phenyl-3-p-menthanecarboxamide], the “Concentration” value [1] is reported as 0.5 ppm.
For `CC1CCC(C(C)C)C(C(=O)Nc2ccc(-n3cccn3)cc2)C1` (stereo not shown) [N-4-(pyrazol-1-yl)-phenyl-3-p-menthanecarboxamide], the “Concentration” value [1] was 0.02 ppm.
In the case of `CC1CCC(C(C)C)C(C(=O)Nc2cccc(-c3cnco3)c2)C1` (stereo not shown) [Example 6, N-3-(oxazol-5-yl)-phenyl-3-p-menthanecarboxamide], the “Concentration” value [1] is reported as 0.1 ppm, the “duration of cooling perception” value [3] is reported as “several hours” and the cooling sensation ([3]; all areas of the mouth) is reported as “intense cooling sensation”.
With `CC1CCC(C(C)C)C(C(=O)Nc2ccc(-n3cncn3)cc2)C1` (stereo not shown) [Example 4, N-4-([1,2,4]triazol-1-yl)-phenyl-3-p-menthanecarboxamide] the “Concentration” value [1] was 0.02 ppm.
In the case of `CC1CCC(C(C)C)C(O)C1` (stereo not shown) [Example 1-Menthol, 1-Menthol, reference compound], the “Concentration” value [1] is reported as 2.0 ppm.
In the case of `CC1CCC(C(C)C)C(C(=O)Nc2ccc3ncsc3c2)C1` (stereo not shown) [Example 3, N-benzothiazol-6-yl menthanecarboxamide], the “Concentration” value [1] is reported as 0.3 ppm.

Reference: patent publication US7868004B2, “Menthane carboxamide derivatives having cooling properties” (Givaudan S.A., priority 2005, dated 2011)
